In patent US10857180B2, “Pharmaceutical composition for improving health, cure abnormalities and degenerative disease, achieve anti-aging effect of therapy and therapeutic effect on mammals and method thereof” (priority 2014, dated 2020):

Key:
HL-60 cells = experiment: Morphological and growth characteristics of HL-60 cells; format: cell-based, human; settings: sulfates, living cell culture
From the text: However, articles about an important role of EMT in the study of lymphomas and leukemias as well have started coming out recently, which is an interesting stage in the research into the tumor process as a whole, since these tumors radically differ from “usual solid neoplasias” in their histogenesis and, accordingly, in their phenotypic characteristics. Thus, such comprehensive research into adhesion proteins and cell cytoskeleton in the tumor cells of Burkitt lymphoma and acute promyelocyte leukemia after the action of the group of components under study is a relevant and contemporary attempt of a deeper analysis of the modification of a cell phenotype of tumor cells in order to assess changes in the degree of their malignancy. Materials and methods for leukemia cell lines HL-60 and Namalva and cell culture conditions will now be described. […] The first plate was for coloring cells with trypan blue and the second one was for the MTT assay.
After preparation of the corresponding concentrations of the components, they were introduced into appropriate wells of the plate in which HL-60 or Namalva cell were in complete medium. The volume of the culture medium with cells was 100 mcl per well and the concentration of cells in the suspension was 3×10^5 cells/ml (3×10^6/plate). […]

[1] = tested on: normal rat kidney cells (NRK cell line); experiment: Effect on normal rat kidney cells versus Doxorubicin
From the text: An immortalized cell line is a stable, capable of unlimited proliferation cell line that consists of cells with […] in culture.

[2] = tested on: A-549 cell line (human lung cancer); experiment: Type A cell transformation of A-549 cells, effect of solution storage; format: cell-based
Procedure: Alluding to the above, the effect of accumulation of antitumor properties of light isotopes containing materials on A-549 tumor cell line will now be discussed. When working with the preparations under study, it was noted that the functional activity of certain doses of the components increased over time after preparation of the solution and its subsequent storage at t+4° C. […] The preparation was stored at the temperature of […].

[3] = tested on: healthy human skin cells (HaCaT cell line); experiment: Scratch assay, HaCaT cells; format: cell-based; settings: ^64Zn 25 mcg/ml; equal to control
Procedure: The cells of A-549, A-431, NRK, HaCaT, MM-4, normal fibroblasts (derived from the Bank of Cell Lines from human and animal tissues, R. E. Kavetsky Institute of Experimental Pathology, Oncology and Radiobiology, National Academy of Sciences of Ukraine) were cultured in complete culture medium RPMI 1640/DMEM (PAA, Austria) (depending on the cell type) supplemented with 10% fetal calf serum (PAA, Austria) and incubated in 5% CO2 humidified atmosphere at 37° C. The culture medium was replaced in 2 to 3 days and the cells were passaged in 4 to 5 days.
Analysis of the influence of the components under study on the cell migration rate was performed using the scratch assay method. […]
The plate was incubated in a CO2 incubator for additional 48 hours. After the cells formed a dense monolayer it was damaged (by making a “scratch”) and the growth medium was replaced to remove cell debris and smooth the edges of the “scratch.” The rate of cell migration was analyzed using an inverted microscope and by photographing cells in the area of injury. The migration activity of cells was fixed at several time points (depending on the cell line analyzed). The microphotomicrographs were analyzed and the cell incubation time needed to restore the monolayer was determined for all experimental groups. […]

[4] = tested on: normal rat kidney cells (NRK line); experiment: Immunocytochemistry of NRK cells; format: cell-based
Procedure: When making the immunocytochemistry (ICC) assay, cells on microscope glasses (cytospin preparations) were fixed in the solution (methanol+acetone 1:1) for 2 hours at t 20° C. and incubated with 1% solution of bovine serum albumin (BSA) for 20 minutes. Then the monoclonal antibodies-CD44 (Diagnostic BioSystems), E-cadherin (ThermoScientific), N-cadherin (NeoMarker, BioLegend), SLUG (GeneTex)—were applied for the time period specified by the manufacturer (30 to 60 minutes), after which the Poly Vue imaging system conjugated with peroxidase was used and the enzyme activity was detected using diaminobenzidine (ThermoScientific) as a substrate. After the immunocytochemical reaction the preparations were washed with water and counterstained with hematoxylin-eosin (for 15 to 30 seconds).
The results were analyzed by counting cells with expression (brown colored cells) using a light microscope, and were assessed using the classical H-Score method: S=1×A+2×B+3×C, where S is the H-Score index giving a range of 0 (protein is not detected) to 300 (high-level expression in 100% of the cells); A is the percentage of weakly staining cells, B is the percentage of moderately staining cells and C is the percentage of strongly staining cells.

SMILES	morphological and growth characteristics (adhesion) (HL-60 cells)	effect on functional properties of NRK cells [1]	cells of type A ([2]; ^64Zn sulphate, after 28 days)	time of monolayer healing [3]	phenotype of normal cells [4]	transformation of initial tumor cells to cells of type A ([2]; ^39K 0.4 mg/ml, in both cases)	transformation of initial tumor cells to cells of type A ([2]; ^39K 10 mg/ml)	number of cells of type A after 20 days of storage vs first day ([2]; ^39K sulphate form 2 mg/ml)
O=S(=O)([O-])[O-].[24Mg+2] [^24Mg]	significant enhancement of adhesion of cells to the substrate	did not affect functional properties						
O=S(=O)([O-])[O-].[64Zn+2] [^64Zn]	significant enhancement of adhesion of cells to the substrate	did not affect functional properties	About 50%	36 h	has not changed			
[39K+].[Cl-] [^39K]						100%	no transformational effect was found	2 fold
